Laboratory results published in patent US8546370B2, “Compounds and compositions as kinase inhibitors” (IRM LLC, priority 2008, dated 2013).

What was measured:
[1] = molecular target: Ba/F3 cells expressing Tel-FMS (Homo sapiens, UniProt P07333); conditions: read-out: IC50 in BaF3/Tel-FMS cellular assay
Experimental: (§1) Compounds of the invention are tested for their antiproliferative effect on Ba/F3 cells expressing either Tel-TrkA, Tel-TrkB or Tel-TrkC and an additional panel of 34 selected diverse kinases activated by fusion to the dimerizing partners Bcr or Tel (Abl, AlK, BMX, EphA3, EphB2, FGFR2, FGFR3, FGFR4, FGR, FLT1, FLT3, FLT4, FMS, IGF1R, InsR, JAK1, JAK2, JAK3, KDR, Kit, Lck, Lyn, MER, MET, PDGFRb, RET, RON, Ros-1, Src, Syk, TIE2, TYK2, Tie1, ZAP70). The antiproliferative effect of these compounds on the different cell lines and on the non transformed cells were tested at 12 different concentrations of 3-fold serially diluted compounds in 384 well plates as described above (in media lacking IL3). The IC50 values of the compounds the different cell lines were determined from the dose response curves obtained as describe above.

[2] = molecular target: Ba/F3 cells transformed with Tel c-Kit (Homo sapiens, UniProt P10721); conditions: read-out: IC50 in BaF3/Tel-KIT cellular assay
Ba/F3 cells transformed with Tel c-Kit, sequence (P10721 26-976 limits assumed, change not shown): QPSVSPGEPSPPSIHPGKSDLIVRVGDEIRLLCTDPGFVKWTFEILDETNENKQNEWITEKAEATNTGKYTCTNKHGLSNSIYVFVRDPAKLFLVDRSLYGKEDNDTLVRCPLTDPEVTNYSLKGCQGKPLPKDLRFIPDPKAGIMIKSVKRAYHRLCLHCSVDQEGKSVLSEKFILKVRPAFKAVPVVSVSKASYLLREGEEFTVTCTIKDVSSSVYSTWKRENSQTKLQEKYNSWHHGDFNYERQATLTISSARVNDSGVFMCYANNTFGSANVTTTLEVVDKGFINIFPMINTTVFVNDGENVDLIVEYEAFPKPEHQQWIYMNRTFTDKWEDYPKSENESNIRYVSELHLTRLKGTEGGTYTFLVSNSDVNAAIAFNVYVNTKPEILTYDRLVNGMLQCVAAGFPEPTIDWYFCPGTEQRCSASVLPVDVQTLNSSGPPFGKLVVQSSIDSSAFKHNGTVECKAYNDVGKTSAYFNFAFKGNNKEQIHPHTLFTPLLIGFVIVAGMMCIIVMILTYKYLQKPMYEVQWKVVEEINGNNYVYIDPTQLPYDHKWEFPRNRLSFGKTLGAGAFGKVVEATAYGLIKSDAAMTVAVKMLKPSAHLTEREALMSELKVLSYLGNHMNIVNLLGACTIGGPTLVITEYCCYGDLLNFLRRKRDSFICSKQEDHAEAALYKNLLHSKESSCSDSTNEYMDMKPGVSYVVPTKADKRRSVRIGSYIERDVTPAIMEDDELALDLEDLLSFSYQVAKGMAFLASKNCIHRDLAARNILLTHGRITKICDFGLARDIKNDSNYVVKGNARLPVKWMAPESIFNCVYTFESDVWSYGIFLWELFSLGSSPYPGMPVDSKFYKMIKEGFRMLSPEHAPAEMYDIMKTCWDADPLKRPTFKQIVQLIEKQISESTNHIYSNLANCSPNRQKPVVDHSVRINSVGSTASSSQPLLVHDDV
Experimental: as §1

[3] = molecular target: Ba/F3 cells transformed with human Tel-TrkA (Homo sapiens, UniProt P04629); conditions: read-out: IC50 in BaF3/Tel-TRKA cellular assay
Ba/F3 cells transformed with human Tel-TrkA, sequence (P04629 33-796 limits assumed, change not shown): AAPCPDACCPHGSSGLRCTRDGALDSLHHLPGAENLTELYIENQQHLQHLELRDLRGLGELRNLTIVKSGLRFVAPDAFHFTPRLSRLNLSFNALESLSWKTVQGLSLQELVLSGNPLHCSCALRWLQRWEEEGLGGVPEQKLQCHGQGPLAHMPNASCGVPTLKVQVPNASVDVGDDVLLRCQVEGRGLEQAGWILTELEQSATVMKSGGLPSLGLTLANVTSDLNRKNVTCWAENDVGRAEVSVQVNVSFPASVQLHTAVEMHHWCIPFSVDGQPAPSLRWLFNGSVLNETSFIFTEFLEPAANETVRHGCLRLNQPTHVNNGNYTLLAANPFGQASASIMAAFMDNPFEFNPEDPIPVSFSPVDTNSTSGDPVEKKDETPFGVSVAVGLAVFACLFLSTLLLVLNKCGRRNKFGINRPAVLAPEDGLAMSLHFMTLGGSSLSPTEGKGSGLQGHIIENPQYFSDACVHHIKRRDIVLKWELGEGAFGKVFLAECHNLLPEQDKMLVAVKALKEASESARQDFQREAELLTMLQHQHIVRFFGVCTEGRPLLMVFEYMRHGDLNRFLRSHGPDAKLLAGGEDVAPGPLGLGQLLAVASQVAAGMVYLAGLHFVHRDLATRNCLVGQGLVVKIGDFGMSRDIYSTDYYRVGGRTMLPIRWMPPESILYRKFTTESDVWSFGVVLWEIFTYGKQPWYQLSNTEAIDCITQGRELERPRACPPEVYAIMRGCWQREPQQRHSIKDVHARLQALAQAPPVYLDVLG
Experimental: as §1

[4] = molecular target: Ba/F3 cells transformed with Tel-KDR (Homo sapiens, UniProt P35968); conditions: read-out: IC50 in BaF3/Tel-KDR cellular assay
Ba/F3 cells transformed with Tel-KDR, sequence (P35968 20-1356 limits assumed, change not shown): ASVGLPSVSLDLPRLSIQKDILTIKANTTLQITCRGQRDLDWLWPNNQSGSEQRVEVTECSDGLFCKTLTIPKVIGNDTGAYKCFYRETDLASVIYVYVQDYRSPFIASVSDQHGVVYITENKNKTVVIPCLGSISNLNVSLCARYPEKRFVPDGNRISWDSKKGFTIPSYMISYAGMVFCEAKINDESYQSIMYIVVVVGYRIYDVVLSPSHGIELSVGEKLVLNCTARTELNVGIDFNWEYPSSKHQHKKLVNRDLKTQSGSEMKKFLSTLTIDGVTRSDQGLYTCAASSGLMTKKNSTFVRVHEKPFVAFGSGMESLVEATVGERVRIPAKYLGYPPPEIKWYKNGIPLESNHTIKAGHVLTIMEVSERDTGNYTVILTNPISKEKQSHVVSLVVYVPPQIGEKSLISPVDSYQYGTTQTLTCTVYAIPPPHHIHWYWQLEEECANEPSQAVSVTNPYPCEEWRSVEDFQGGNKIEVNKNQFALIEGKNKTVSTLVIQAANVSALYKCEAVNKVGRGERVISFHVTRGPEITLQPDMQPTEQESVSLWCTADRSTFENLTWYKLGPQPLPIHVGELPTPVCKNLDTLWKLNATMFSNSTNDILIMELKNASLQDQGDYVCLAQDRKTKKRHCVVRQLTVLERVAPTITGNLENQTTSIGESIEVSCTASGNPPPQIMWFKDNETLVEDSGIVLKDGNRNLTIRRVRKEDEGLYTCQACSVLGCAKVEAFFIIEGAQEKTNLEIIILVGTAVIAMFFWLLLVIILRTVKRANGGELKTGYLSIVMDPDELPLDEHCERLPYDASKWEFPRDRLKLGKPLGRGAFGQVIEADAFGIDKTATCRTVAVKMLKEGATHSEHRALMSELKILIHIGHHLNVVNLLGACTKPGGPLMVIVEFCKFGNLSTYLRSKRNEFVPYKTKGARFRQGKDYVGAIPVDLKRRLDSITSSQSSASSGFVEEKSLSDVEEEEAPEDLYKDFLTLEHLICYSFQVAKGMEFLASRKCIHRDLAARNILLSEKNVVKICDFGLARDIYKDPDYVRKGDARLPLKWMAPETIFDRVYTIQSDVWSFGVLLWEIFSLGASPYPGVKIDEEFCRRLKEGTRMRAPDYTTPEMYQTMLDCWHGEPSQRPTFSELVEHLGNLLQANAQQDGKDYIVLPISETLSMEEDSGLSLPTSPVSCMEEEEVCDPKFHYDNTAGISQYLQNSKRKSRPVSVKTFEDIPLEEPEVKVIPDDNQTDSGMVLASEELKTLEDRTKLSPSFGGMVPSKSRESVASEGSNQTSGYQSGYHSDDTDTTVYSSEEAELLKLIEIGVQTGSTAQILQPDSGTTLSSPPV
Experimental: (§2) Luciferase expressing Ba/F3 murine pro-B cells are transformed with Tel-Syk, Tel-Zap70 or Tel-KDR. Cells are maintained in RPMI/10% fetal calf serum (RPMI/FCS) supplemented with penicillin 50 μg/mL, streptomycin 50 μg/mL and L-glutamine 200 mM. Untransformed Ba/F3 cells are similarly maintained with the addition of murine recombinant IL3. Cells are dispensed into 384-well format plate at 5000 cell/well in 50 μL of culture medium. Compounds of the invention are dissolved and diluted in dimethylsufoxide (DMSO). Twelve points 1:3 serial dilutions are made into DMSO to create concentrations gradient ranging from 10 mM to 0.05 μM. Cells are added with 50 nL of diluted compounds and incubated for 48 hours in cell culture incubator. Luminiscent signal is measured following the addition of Bright Glo® (Promega) luciferase substrate. IC50 values are calculated by linear regression analysis of the percentage inhibition of each compound at 12 concentrations.
as §1

[5] = molecular target: Ba/F3 cells transformed with Tel-Syk (Homo sapiens, UniProt P43405); conditions: read-out: IC50 in BaF3/Tel-Syk cellular assay
Experimental: as §2, §1

[6] = molecular target: FMS (Homo sapiens (Human), UniProt P07333); experiment: Caliper LabChip mobility-shift kinase assay, single point; type: biochemical; conditions: at a concentration of 5 μM
Experimental: (§3) In addition, compounds of Formula (I) were assessed for their ability to inhibit individual kinases utilizing Caliper Life Sciences' proprietary LabChip™ technology. A partial, non-limiting list of kinases includes: Syk, ZAP70, KDR, FMS, FLT3, c-Kit, RET, TrkA, TrkB, TrkC, IGR-1R, Alk and c-FMS kinases. The off-chip incubation mobility-shift kinase assay uses a microfluidic chip to measure the conversion of a fluorescent peptide substrate to a phosphorylated product. The reaction mixture, from a microtiter plate well, is introduced through a capillary sipper onto the chip, where the nonphosphorylated substrate and phosphorylated product are separated by electrophoresis and detected via laser induced fluorescence. […] The phosphorylated product migrates through the chip faster than the non-phosphorylated substrate, and signals from the two forms of the peptide appear as distinct peaks. Caliper's data analysis software (HTSWA) determines peak heights, from which the ratio of product to the peak sum P/(P+S) and percent (%) conversion is calculated. This value is used to compare compound wells to control wells present on the plate, and thereby determine the % inhibition values for the compound.
(§4) Generally, 12 μL of enzyme buffer containing purified kinase (various amount; various suppliers), 100 mM HEPES, pH 7.5, 1 mM DTT (Calbiochem, 2333153), 10 mM MgCl2 (Sigma, M-1028) or 10 mM MnCl2 (Sigma, M-1787) (assay specific), and 0.002% Brij-35 (Sigma, B4184) are added to each well. Compound and enzyme are allowed to pre-incubate for 15 minutes. 12 μL of peptide/ATP buffer containing 100 mM HEPES, pH 7.5, 1.5 μM fluorescein-labeled peptide (specific to kinase of interest), ATP (at KM apparent, Sigma, A9187), and 0.002% Brij-35 is then added to each well to initiate the reaction. The final concentration of DMSO in the well is 4%. Generally, reactions are incubated for 1 to 1.5 hours at room temperature to obtain adequate conversion of peptide to phosphorylated product in the linear range of the reaction. Reactions are terminated with the addition of 45 μL of Stop Buffer (containing 20 mM EDTA). Plates are then read on the LabChip 3000 using a 12-sipper LabChip. % conversion values and % inhibition values are obtained as described and IC50 curves of compounds are generated using GraphPad Prism Version 4 or 5.01, or XLfit Version 4.3.2. When using GraphPad Prism, a nonlinear curve fit using the sigmoidal dose response—variable slope fit was used to graph IC50 curves and determine IC50 values and hillslopes. When using XLfit, Fit Model 205 (4-Parameter Logistic Model) is used to generate and fit the IC50 curve.

[7] = molecular target: FLT3 (Homo sapiens (Human), UniProt P36888); experiment: as above; type: biochemical; conditions: at a concentration of 5 μM
FLT3, sequence (P36888 27-993, species assumed): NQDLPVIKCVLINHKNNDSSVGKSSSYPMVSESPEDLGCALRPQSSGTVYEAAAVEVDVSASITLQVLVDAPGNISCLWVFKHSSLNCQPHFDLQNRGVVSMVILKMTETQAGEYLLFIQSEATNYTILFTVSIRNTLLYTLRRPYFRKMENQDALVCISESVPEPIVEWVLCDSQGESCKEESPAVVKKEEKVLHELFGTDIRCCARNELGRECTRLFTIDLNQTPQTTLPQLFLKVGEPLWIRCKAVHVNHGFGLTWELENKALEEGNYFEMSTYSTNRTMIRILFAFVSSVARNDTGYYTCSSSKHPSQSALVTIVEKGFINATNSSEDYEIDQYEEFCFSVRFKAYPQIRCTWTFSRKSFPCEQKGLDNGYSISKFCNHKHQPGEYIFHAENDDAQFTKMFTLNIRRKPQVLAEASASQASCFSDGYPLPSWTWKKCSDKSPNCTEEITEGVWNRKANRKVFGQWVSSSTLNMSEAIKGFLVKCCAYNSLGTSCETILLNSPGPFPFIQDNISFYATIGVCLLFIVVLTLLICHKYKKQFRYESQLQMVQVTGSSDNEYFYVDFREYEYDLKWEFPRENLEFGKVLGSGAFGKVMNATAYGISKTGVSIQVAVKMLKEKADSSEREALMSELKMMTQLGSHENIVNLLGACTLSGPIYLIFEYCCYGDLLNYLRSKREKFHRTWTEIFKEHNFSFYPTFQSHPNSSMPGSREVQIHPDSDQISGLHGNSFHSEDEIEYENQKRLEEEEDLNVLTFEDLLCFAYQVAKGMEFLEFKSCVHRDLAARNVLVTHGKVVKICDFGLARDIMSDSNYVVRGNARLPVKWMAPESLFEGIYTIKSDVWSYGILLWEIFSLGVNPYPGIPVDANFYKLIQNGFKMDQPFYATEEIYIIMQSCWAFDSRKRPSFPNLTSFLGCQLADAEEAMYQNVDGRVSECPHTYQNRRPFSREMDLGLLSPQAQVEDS
Experimental: as §3, §4

[8] = molecular target: KDR (Homo sapiens (Human), UniProt P35968); experiment: as above; type: biochemical; conditions: at a concentration of 5 μM
KDR, sequence (P35968 20-1356, species assumed): as the sequence (P35968 20-1356 limits assumed, change not shown) above
Experimental: as §3, §4

[9] = molecular target: Abl (Homo sapiens (Human), UniProt P00519); experiment: as above; type: biochemical; conditions: at a concentration of 5 μM
Experimental: as §3, §4

[10] = molecular target: RET (Homo sapiens (Human), UniProt P07949); experiment: as above; type: biochemical; conditions: at a concentration of 5 μM
Experimental: as §3, §4

[11] = molecular target: CHK2 (Homo sapiens (Human), UniProt O96017); experiment: as above; type: biochemical; conditions: at a concentration of 5 μM
Experimental: as §3, §4

[12] = molecular target: JAK2 (Homo sapiens (Human), UniProt O60674); experiment: as above; type: biochemical; conditions: at a concentration of 5 μM
Experimental: as §3, §4

[13] = molecular target: TRKA (Homo sapiens (Human), UniProt P04629); experiment: as above; type: biochemical; conditions: at a concentration of 5 μM
TRKA, sequence (P04629 33-796, species assumed): as the sequence (P04629 33-796 limits assumed, change not shown) above
Experimental: as §3, §4

[14] = molecular target: Ba/F3 cells expressing Tel-FLT3 (Homo sapiens, UniProt P36888); conditions: read-out: IC50 in BaF3/Tel-FLT3 cellular assay
Ba/F3 cells expressing Tel-FLT3, sequence (P36888 27-993 limits assumed, change not shown): as the sequence (P36888 27-993, species assumed) above
Experimental: as §1

Ba/F3 cells expressing Tel-FMS, sequence (P07333 20-972 limits assumed, stated change not applied): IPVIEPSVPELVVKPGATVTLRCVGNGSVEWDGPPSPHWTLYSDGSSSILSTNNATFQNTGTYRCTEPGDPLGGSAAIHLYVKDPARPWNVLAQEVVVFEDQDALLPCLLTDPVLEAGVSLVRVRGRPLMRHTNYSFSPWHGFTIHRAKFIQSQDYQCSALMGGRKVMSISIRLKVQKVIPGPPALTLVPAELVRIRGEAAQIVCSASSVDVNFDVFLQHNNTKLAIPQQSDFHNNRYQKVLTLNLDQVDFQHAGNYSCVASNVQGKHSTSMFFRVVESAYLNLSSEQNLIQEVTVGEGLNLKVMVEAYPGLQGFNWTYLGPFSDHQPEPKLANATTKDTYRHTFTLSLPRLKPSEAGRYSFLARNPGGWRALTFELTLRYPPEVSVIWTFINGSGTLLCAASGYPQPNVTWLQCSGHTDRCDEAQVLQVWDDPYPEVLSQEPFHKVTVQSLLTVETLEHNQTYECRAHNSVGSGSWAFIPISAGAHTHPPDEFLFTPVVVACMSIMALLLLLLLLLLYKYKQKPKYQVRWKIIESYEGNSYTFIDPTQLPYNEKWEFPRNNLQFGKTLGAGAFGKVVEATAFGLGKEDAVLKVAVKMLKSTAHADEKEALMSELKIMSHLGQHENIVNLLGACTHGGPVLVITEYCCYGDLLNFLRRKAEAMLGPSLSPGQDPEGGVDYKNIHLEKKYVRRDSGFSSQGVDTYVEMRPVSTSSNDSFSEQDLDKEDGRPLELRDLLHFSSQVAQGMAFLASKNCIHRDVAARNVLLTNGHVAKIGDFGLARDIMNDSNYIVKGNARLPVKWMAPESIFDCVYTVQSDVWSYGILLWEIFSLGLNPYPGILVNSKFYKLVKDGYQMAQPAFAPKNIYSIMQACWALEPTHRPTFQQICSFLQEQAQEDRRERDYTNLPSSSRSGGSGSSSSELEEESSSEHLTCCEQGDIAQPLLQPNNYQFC

O=c1[nH]ccc2cc(-c3ccccc3)nc(Nc3ccc(N4CCOCC4)cc3)c12 [No 11, 8-(4-morpholinophenylamino)-6-phenyl-2,7-naphthyridin-1(2H)-one]
IC50 [1]: 20 nM
IC50 [2]: 20 nM
IC50 [3]: 70 nM
IC50 [4]: 270 nM
IC50 [5]: 150 nM
inhibition at 5 µM [6]: 84%
inhibition at 5 µM [7]: 100%
inhibition at 5 µM [8]: 96%
inhibition at 5 µM [9]: 100%
inhibition at 5 µM [10]: 99%
inhibition at 5 µM [11]: 94%
inhibition at 5 µM [12]: 96%
inhibition at 5 µM [13]: 74%

CCN1CCN(c2cc3cc[nH]c(=O)c3c(Nc3ccc(N4CCOCC4)cc3)n2)CC1 [No 83, 8-(4-morpholinophenylamino)-6-(4-ethylpiperazin-1-yl)-2,7-naphthyridin-1(2H)-one]
IC50 [1]: 500 nM
IC50 [14]: 530 nM
IC50 [2]: 1220 nM
IC50 [3]: 490 nM
IC50 [4]: 5000 nM
IC50 [5]: 120 nM
